Source: patent publication US20200003756A1, “METHOD FOR OBSERVING SEBACEOUS GLAND” (MANDOM CORPORATION, priority 2017, published 2020)

Test system: sebaceous-gland-structure A
Assay: Classification of the state of lipid droplets in cells of the outermost layer of the sebaceous gland after suspension culture (Example 1)
Format: cell-based
Set-up: key to State of lipid droplet in cell contained in outermost layer of sebaceous gland FIG. 6(A) / State of lipid droplet in cell contained in outermost layer of sebaceous gland FIG. 6(B) / State of lipid droplet in cell contained in outermost layer of sebaceous gland FIG. 6(C) / State of lipid droplet in cell contained in outermost layer of sebaceous gland FIG. 6(D) / State of lipid droplet in cell contained in outermost layer of sebaceous gland FIG. 6(E) / State of lipid droplet in cell contained in outermost layer of sebaceous gland FIG. 6(F) / State of lipid droplet in cell contained in outermost layer of sebaceous gland FIG. 6(G): “◯ (open circle)” shows that a given state shown in FIG. 6 was observed; —: “-” shows that the given state shown in FIG. 6 was not observed
Conditions: for State of lipid droplet in cell contained in outermost layer of sebaceous gland FIG. 6(A): (A) No lipid droplet is found in the cell; for State of lipid droplet in cell contained in outermost layer of sebaceous gland FIG. 6(B): (B) A few lipid droplets are found in the cell; for State of lipid droplet in cell contained in outermost layer of sebaceous gland FIG. 6(C): (C) There is a space of lipid droplets in the cell; for State of lipid droplet in cell contained in outermost layer of sebaceous gland FIG. 6(D): (D) Lipid droplets start erosion of the nucleus; for State of lipid droplet in cell contained in outermost layer of sebaceous gland FIG. 6(E): (E) Lipid droplets start being connected to each other; for State of lipid droplet in cell contained in outermost layer of sebaceous gland FIG. 6(F): (F) The cell is fully occupied by lipid droplets; for State of lipid droplet in cell contained in outermost layer of sebaceous gland FIG. 6(G): (G) The cell is disappeared
Description: Under a stereoscopic microscope, a subcutaneous tissue was removed from a skin tissue by using scissors. Next, collagenous fibers were removed from the dermis in the skin tissue by using scissors and tweezers after removing the subcutaneous tissue, to obtain a sebaceous-gland-structure in which a sebaceous gland was exposed (hereinafter referred to as “sebaceous-gland-structure A”). […] In the sebaceous-gland-structure A, a sebaceous gland was exposed.
The sebaceous-gland-structure A obtained in Preparation Example 6 was immersed in a 4% by mass PFA-containing PBS solution at 4° C. for 30 minutes to fix the sebaceous-gland-structure A, thereby giving a fixed sample. The resulting fixed sample was washed by incubating the sample in a 2% by mass BSA-containing PBSTT solution at 4° C. for 1 hour. Washing was carried out three times.
The fixed sample after the washing was incubated in the primary antibody-containing solution obtained in Preparation Example 2 at 4° C. for 24 hours. The fixed sample after the incubation was washed by incubating the fixed sample in a […] by mass BSA-containing PBSTT solution at 4° C. for 1 hour. Washing was carried out three times.
The fixed sample after the washing was incubated in the staining reagent A obtained in Preparation Example 3 at 4° C. for 12 hours, to stain the sebaceous gland basal cell and the nucleus present in the outermost layer of the sebaceous gland. The stained fixed sample was washed by incubating the sample in a 2% by mass BSA-containing PBSTT solution at 4° C. for 1 hour. Washing was carried out three times.
The fixed sample after the washing was incubated in the staining reagent B obtained in Preparation Example 4 at room temperature (25° C.) for 30 minutes, to stain the sebum contained in the sebaceous-gland-structure A. The stained fixed sample was washed by incubating the sample in a 2% by mass BSA-containing PBSTT solution at 4° C. for 1 hour. Washing was carried out three times.
The fixed sample after the washing was subjected to incubation in a 20% by mass glycerol-containing PBS solution at 4° C. for 1 hour, incubation in a 50% by mass glycerol-containing PBS solution at 4° C. for 1 hour, and incubation in a 80% by mass glycerol-containing PBS solution at 4° C. for 1 hour, to substitute the moisture contained in the fixed sample with glycerol.
An appropriate amount (for example, 50 μL) of an 80 by mass aqueous glycerol solution was added to a region surrounded by the spaced contained in the spacer-attached coverslip obtained in Preparation Example 5. Next, the glycerol-substituted sebaceous-gland-structure A was placed on the region surrounded by the spacer contained in the spacer-attached coverslip so that the side of the sebaceous gland was directed downwards. Thereafter, the region surrounded by the spacer contained in the spacer-attached coverslip was covered with a round-shaped coverslip (diameter: 12 mm), to obtain an observation sample.
Linoleic acid was added to the mixed medium obtained in Preparation Example 1 (hereinafter also referred to as “test sample A”) so that the concentration of linoleic acid was 1×10^−4 M, to obtain a test sample B. In addition, linoleic acid was added to the mixed medium obtained in Preparation Example 1 so that the concentration of linoleic acid was 1×10^−3 M, to obtain a test sample C.
One milliliter of the test sample A was added to each well of a 24-well plate. Next, the sebaceous-gland-structure A obtained in Preparation Example 6 was cultured in a suspended state in the test sample A contained in each well of the 24-well plate in the presence of 5% by volume carbon dioxide at 37° C. for 24 hours, to contact the sebaceous-gland-structure A with the test sample A (Experiment number 1). In addition, the sebaceous-gland-structure A was contacted with the test sample A in the same manner as in Experiment number 1 except that in Experiment number 1, 48-hour culture was carried out in place of 24-hour culture (Experiment number 2). […]

[1] = linoleic acid 1 × 10^−3 M, culture 24 h (Experiment 5)
[2] = linoleic acid 1 × 10^−3 M, culture 48 h (Experiment 6)
[3] = linoleic acid 1 × 10^−4 M, culture 24 h (Experiment 3)
[4] = linoleic acid 1 × 10^−4 M, culture 48 h (Experiment 4)

Which “State of lipid droplet in cell contained in outermost layer of sebaceous gland FIG. 6(A)” value (“State … of sebaceous gland FIG. 6(A)” below) [1] does the source give for `CCCCC/C=C\C/C=C\CCCCCCCC(=O)O` [linoleic acid, Linoleic acid] here?
The value was “◯”.

What about the “State of lipid droplet in cell contained in outermost layer of sebaceous gland FIG. 6(B)” value (shortened to “State … of sebaceous gland FIG. 6(B)”) [1] of the same compound?
Its value is “◯”.

And the “State of lipid droplet in cell contained in outermost layer of sebaceous gland FIG. 6(C)” value (“State … of sebaceous gland FIG. 6(C)” for short) [1]?
Its value is “◯”.

What about the “State of lipid droplet in cell contained in outermost layer of sebaceous gland FIG. 6(D)” value (“State … of sebaceous gland FIG. 6(D)” below) [1] of the same compound?
Its value is “◯”.

And the “State of lipid droplet in cell contained in outermost layer of sebaceous gland FIG. 6(E)” value (shortened to “State … of sebaceous gland FIG. 6(E)”) [1]?
The value was “◯”.

What about the “State of lipid droplet in cell contained in outermost layer of sebaceous gland FIG. 6(F)” value (“State … of sebaceous gland FIG. 6(F)” for short) [1] of the same compound?
The value was “—”.

What about the “State of lipid droplet in cell contained in outermost layer of sebaceous gland FIG. 6(G)” value (“State … of sebaceous gland FIG. 6(G)” below) [1] of the same compound?
The value was “◯”.

What about the “State … of sebaceous gland FIG. 6(A)” value [2] of the same compound?
Its value is “◯”.

And the “State … of sebaceous gland FIG. 6(B)” value [2]?
The value was “◯”.

And the “State … of sebaceous gland FIG. 6(C)” value [2]?
Its value is “◯”.

And the “State … of sebaceous gland FIG. 6(D)” value [2]?
The value was “◯”.

And the “State … of sebaceous gland FIG. 6(E)” value [2]?
The value was “◯”.

And the “State … of sebaceous gland FIG. 6(F)” value [2]?
The value was “◯”.

What about the “State … of sebaceous gland FIG. 6(G)” value [2] of the same compound?
Its value is “◯”.

What about the “number of cells progressing sebum production (tendency from Table 2)” value (linoleic acid 1×10^−4 M and 1×10^−3 M, culture 24 h and 48 h) of the same compound?
Its value is “the higher the linoleic acid concentration in the test sample is and the longer the culture time is, the larger the number of cells progressing sebum production is”.

What about the “State … of sebaceous gland FIG. 6(A)” value [3] of the same compound?
Its value is “◯”.

And the “State … of sebaceous gland FIG. 6(B)” value [3]?
The value was “◯”.

What about the “State … of sebaceous gland FIG. 6(C)” value [3] of the same compound?
The value was “—”.

And the “State … of sebaceous gland FIG. 6(D)” value [3]?
The value was “—”.

What about the “State … of sebaceous gland FIG. 6(E)” value [3] of the same compound?
Its value is “—”.

What about the “State … of sebaceous gland FIG. 6(F)” value [3] of the same compound?
Its value is “—”.

And the “State … of sebaceous gland FIG. 6(G)” value [3]?
Its value is “—”.

And the “State … of sebaceous gland FIG. 6(A)” value [4]?
Its value is “◯”.

And the “State … of sebaceous gland FIG. 6(B)” value [4]?
Its value is “◯”.

What about the “State … of sebaceous gland FIG. 6(C)” value [4] of the same compound?
Its value is “◯”.

What about the “State … of sebaceous gland FIG. 6(D)” value [4] of the same compound?
Its value is “—”.

What about the “State … of sebaceous gland FIG. 6(E)” value [4] of the same compound?
The value was “—”.

And the “State … of sebaceous gland FIG. 6(F)” value [4]?
The value was “—”.

And the “State … of sebaceous gland FIG. 6(G)” value [4]?
The value was “—”.
